Here are results for five compounds from patent publication US8410178B2, “CIS 3,4-dihydroxy-2-(3-methylbutanoyl)-5-(3-methylbutyl)-4-(4-methylpentanoyl)cyclopent-2-en-1-derivatives, substantially enantiomerically pure compositions and methods” (KinDex Therapeutics, LLC, priority 2010, dated 2013).

For one assay, the target named is T1, GPR120 (Homo sapiens, UniProt Q5NUL3).
T1 sequence (Q5NUL3 1-361): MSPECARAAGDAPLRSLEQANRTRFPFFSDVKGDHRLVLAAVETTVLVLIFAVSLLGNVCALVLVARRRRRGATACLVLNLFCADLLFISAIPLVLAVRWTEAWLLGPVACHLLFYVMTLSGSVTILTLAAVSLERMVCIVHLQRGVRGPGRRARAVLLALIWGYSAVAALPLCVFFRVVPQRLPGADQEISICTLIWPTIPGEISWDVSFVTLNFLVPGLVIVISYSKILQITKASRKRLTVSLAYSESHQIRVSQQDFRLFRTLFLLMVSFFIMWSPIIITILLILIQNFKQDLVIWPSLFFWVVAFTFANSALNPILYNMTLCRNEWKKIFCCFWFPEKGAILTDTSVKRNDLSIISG
In words: GPR120 activity, intracellular calcium response in CHO-K1/GPR120/Gα15 cells. Type of assay: cell-based. The procedure: GPR120 activity was measured by intracellular calcium response. CHO-K1/GPR120/Gα15 cells were regularly passaged to maintain optimal cell health and cultured in Ham's F12 supplemented with 10% fetal bovine serum, 200 μg/mL zeocin, and 100 μg/mL hygromycin. Cells were seeded in a 384-well black-wall, clear-bottom plate at a density of 20,000 cell per well in 20 μL of growth medium 18 hours prior to the start of the experiment, and maintained at 37° C./5% CO2. Cells were loaded with calcium-4, and baseline fluorescence readings were obtained from 1 second to 20 seconds using a fluorescent imaging plate reader (FLIPR). At 20 seconds, (+)-KDT501 (5× final concentration) was added to the reading plate, and the fluorescence signal was monitored for 100 seconds (21 seconds to 120 seconds). α-linolenic acid (LA), eicosapentaenoic acid (EPA), and docosahexaenoic acid (DHA) were used as controls. Data acquisition and analysis was performed using ScreenWorks (version 3.1) and exported to Excel. The average fluorescence value for the first 20 seconds was calculated as the baseline reading. The relative fluorescent unit (ΔRFU) intensity values were calculated with the maximal fluorescent units (21 s to 120 s), subtracting the baseline reading. Data analysis wizard written by GenScript was used to analyze EC50. Dose response curves of antagonist were fitted using the GraphPad Prism 4 four parameter logistic equation Y=Bottom+(Top−Bottom)/(1+10^((LogIC50−X)*HillSlope)), where X is the logarithm of concentration and Y is response.
(Calcium assays in cells follow changes in intracellular calcium, usually with a dye or a luminescent sensor.)

Another assay deals with T2, PPARγ (Homo sapiens, UniProt P37231).
T2 sequence (P37231 1-505): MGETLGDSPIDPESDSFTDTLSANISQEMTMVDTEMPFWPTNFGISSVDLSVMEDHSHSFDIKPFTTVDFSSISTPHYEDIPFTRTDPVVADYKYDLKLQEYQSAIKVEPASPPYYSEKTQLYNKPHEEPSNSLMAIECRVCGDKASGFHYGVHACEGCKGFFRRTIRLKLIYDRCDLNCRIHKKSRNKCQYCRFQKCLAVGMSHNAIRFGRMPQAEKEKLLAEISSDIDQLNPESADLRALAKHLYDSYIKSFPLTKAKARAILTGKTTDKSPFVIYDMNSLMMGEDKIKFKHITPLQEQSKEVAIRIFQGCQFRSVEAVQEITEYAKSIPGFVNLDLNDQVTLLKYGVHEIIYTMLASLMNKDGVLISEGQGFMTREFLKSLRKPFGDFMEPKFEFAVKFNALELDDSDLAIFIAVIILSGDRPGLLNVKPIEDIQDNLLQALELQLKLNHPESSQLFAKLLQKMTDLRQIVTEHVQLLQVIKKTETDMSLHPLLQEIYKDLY
Nature of the assay: PPARγ luciferase reporter assay. Conditions: reporter cells, 20 hours. The assay is classed as cell-based. The procedure: The functional effect of (+)-KDT501 on PPARα, PPARδ, and PPARγ activity was evaluated using a PPAR reporter assay (INDIGO Biosciences, PA). This assay utilizes non-human mammalian cells engineered to provide constitutive high level expression of PPARα, PPARδ, or PPARγ and containing a luciferase report gene specific to the appropriate PPAR. Following activation by agonist binding, PPAR induces expression of the luciferase reporter gene. Luciferase activity therefore provides a surrogate for measuring PPAR activity in agonist-treated cells.
Reporter cells were plated on a 96-well plate at 100 μL per well, and 100 μL of (+)-KDT501 at various final concentrations (25, 12.5, 6.25, 3.125, 1.56 and 0.78 μM) was added to each well. […] 0.1% DMSO was also used as a negative control for each assay. Plates are incubated for 20 hours in a humidified incubator at 37° C. and 5% CO2. After incubation, cell medium was discarded and the cells were treated with 100 μL of luciferase detection reagent for 15 minutes. Plates were analyzed using a luminometer (Victor2, Perkin Elmer). Average relative light unit (RLU) and standard deviation were analyzed using GraphPad Prism.
The PPAR activity assays were repeated as described above using both (+)-KDT501(12.5, 6.25, 3.125, 1.56, and 0.78 μM) and (−)-KDT501 (25, 12.5, 6.25, 3.125, 1.56, and 0.78 μM).

The subject of assay [1] is Zucker diabetic fatty (ZDF) rats. Nature of the assay: Glucose and triglyceride levels in a rat diabetes model. The assay is classed as in vivo. To be noted: 200 mg/kg orally twice a day. The procedure:
64 six-week-old male Zucker diabetic fatty (ZDF) rats with glucose levels of 175-300 mg/dL were randomized and divided into eight dosing groups: 1) vehicle only (0.5% methylcellulose (w/v), 0.2% Tween 80 (w/v); negative control), 2) (+)-KDT501 25 mg/kg, 3) (+)-KDT501 50 mg/kg, 4) (+)-KDT501 100 mg/kg, 5) (+)-KDT501 200 mg/kg, 6) metformin 200 mg/kg (positive control), 7) metformin 200 mg/kg and (+)-KDT501 100 mg/kg, and 8) pioglitazone 30 mg/kg (positive control). Drugs were administered orally twice a day for 33 days.
Animals were weighed at randomization and once per week thereafter, with administration dosages calculated based on the most recent body weight measurements. Blood samples were collected by tail bleed three days prior to randomization, at randomization, and at days 15 and 29 after the start of treatment. These blood samples were used to perform whole blood glucose evaluations using a glucometer, as well as to measure blood triglyceride levels. Body composition was tested by qNMR on days 2 and 29 after the start of treatment. An oral glucose tolerance test (OGTT) was performed on days 31 and 32 after the start of treatment. Rats underwent an overnight fast prior to OGTT, and tail bleeds for glucose and insulin were performed pre-glucose bolus and at 15, 30, 60, 90, and 120 minutes post-glucose bolus. The glucose bolus was 2 g dextrose/kg of body weight. On day 33, a cardiac puncture was performed for PK analysis.

Assay [2] has as its system diet induced obese (DIO) mice. In words: Glucose, insulin, HbA1C and fat mass in high fat diet-induced obesity (DIO) mouse model. The assay is classed as in vivo. Conditions: 200 mg/kg orally twice a day. The procedure:
14 week-old male mice were randomized and divided into seven dosing groups with 16 animals in each group: 1) vehicle only (0.5% methylcellulose (w/v), 0.2% Tween 80 (w/v); negative control), 2) (+)-KDT501 25 mg/kg, 3) (+)-KDT501 50 mg/kg, 4) (+)-KDT501 100 mg/kg, 5) (+)-KDT501 200 mg/kg, 6) metformin 200 mg/kg (positive control), and 7) pioglitazone 30 mg/kg (positive control). Drugs were administered orally twice a day for 30 days.
Animals were weighed at randomization and once per week thereafter, with administration dosages calculated based on the most recent body weight measurements. The mice were maintained on a high fat diet (40% Kcal) (TD95217; prepared by Covance Laboratories, Greenfield, Ind.). Body composition was tested by qNMR on days −5 and 28 after the start of treatment. […]. An oral glucose tolerance test (OGTT) was performed on day 30 after the start of treatment. Mice underwent an overnight fast prior to OGTT, and tail bleeds for glucose and insulin were performed pre-glucose bolus and at 15, 30, 60, 90, and 120 minutes post-glucose bolus. The glucose bolus was 2 g dextrose/kg of body weight. OGTT results were evaluated by area under the curve (AUC) measurements and Dunnett's test.

[3] abbreviates: CHO-K1/GPR120/Gα15 cells, calcium response, read-out: GPR120 agonistic activity EC50.

Read-outs that look alike come from different tables or passages of the source.

As to `CC/C=C\C/C=C\C/C=C\C/C=C\C/C=C\C/C=C\CCC(=O)O` [DHA, docosahexaenoic acid], the EC50 – broadly, the midpoint of the concentration-response curve – at GPR120 (setting [3]) was determined as 35.3 µM.
Regarding `CC/C=C\C/C=C\C/C=C\C/C=C\C/C=C\CCCC(=O)O` [EPA, eicosapentaenoic acid], the EC50 at GPR120 (setting [3]) was 116 µM.
With `CCCc1nc2c(C)cc(-c3nc4ccccc4n3C)cc2n1Cc1ccc(-c2ccccc2C(=O)O)cc1` [Telmisartan, telmisartan, reference compound], on PPARγ, the PPARγ activity result is “increased PPARγ activity”.
Regarding `CN(C)C(=N)N=C(N)N` [metformin, reference compound], the “whole blood glucose levels” value in assay [1] is recorded as “slight increase”. The triglyceride levels result in assay [1] (days 15 and 29) is “increase”. Besides, the HbA1C result in assay [2] (day 29, versus vehicle-only) is reported as “significant difference”. In addition, in assay [2] (day 30), the “blood glucose levels from the OGTT” value is reported as “significant decrease” and the “insulin levels from the OGTT” value is “significant decrease”. Moreover, the fat mass result in assay [2] (qNMR day 28) is “reduction in fat mass”.
For the compound `CC/C=C\C/C=C\C/C=C\CCCCCCCC(=O)O` [α-LA, α-linolenic acid], the EC50 on GPR120 came to 36.1 µM.
